From patent US20100324285A1, “ANTIINFLAMMATORY AGENT COMPRISING 2-AMINOPHENOL OR DERIVATIVE THEREOF AS ACTIVE INGREDIENT” (priority 2006, published 2010)
Where two headings read alike, the source gives them in different places.

How the values were obtained:
[1] = test system: Mouse melanoma cell line B16; assay: Melanin synthesis in B16 cells; format: cell-based; settings: for Amount of melanin (%): 5 days, per mg protein versus control
Procedure: (§1) As control, a system with no test sample was provided. […] The amount of protein was measured by conventional Bradfordmethod and the amount of melanin per 1 mg of protein was calculated. The amount of melanin (%) was calculated according to Formula 4, and the living cell rate (%) was calculated according to Formula 5.
As control, a system with no test sample was provided. […] The amount of protein was measured by conventional Bradford method and the amount of melanin per 1 mg of protein was calculated. The amount of melanin (%) was calculated according to Formula 4.

[2] = biological target: T1, COX-1 (Ovis aries, UniProt P05979); assay: COX Inhibitor Screening Assay Kit, COX-1; format: biochemical
T1 construct: purchased Cayman Chemical Company
T1 sequence (P05979 25-600): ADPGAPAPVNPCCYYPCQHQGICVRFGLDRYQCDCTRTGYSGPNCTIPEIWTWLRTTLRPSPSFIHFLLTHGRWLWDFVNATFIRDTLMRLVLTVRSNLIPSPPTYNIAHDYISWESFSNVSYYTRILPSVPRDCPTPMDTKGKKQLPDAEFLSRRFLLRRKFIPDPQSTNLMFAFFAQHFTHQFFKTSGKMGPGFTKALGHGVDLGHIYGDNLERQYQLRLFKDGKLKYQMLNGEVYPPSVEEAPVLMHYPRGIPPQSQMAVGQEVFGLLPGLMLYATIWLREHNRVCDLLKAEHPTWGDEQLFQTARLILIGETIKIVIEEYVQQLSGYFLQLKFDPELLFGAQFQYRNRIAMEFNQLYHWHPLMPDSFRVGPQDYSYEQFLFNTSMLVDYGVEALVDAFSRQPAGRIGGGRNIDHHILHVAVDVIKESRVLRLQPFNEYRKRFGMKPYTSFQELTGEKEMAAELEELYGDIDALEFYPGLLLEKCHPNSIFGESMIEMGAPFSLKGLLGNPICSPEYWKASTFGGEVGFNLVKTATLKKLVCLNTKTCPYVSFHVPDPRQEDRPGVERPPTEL
Excerpt: (§2) Fifty percent inhibitory concentration (IC50) means the concentration of test sample necessary for inhibiting PGE2 synthesis by 50% compared to non-inhibitory control sample. It can be also determined by measuring the amount of PGE2 produced by adding test samples to cells having cyclooxygenase activity. COX-1/COX-2 ratio means the ratio of […], and the higher the ratio is, the more specific to COX-2 the agent is.
(§3) To verify the results of Experiment 2, it was investigated that whether the activity of COXs, essential enzymes for PGE2 synthesis system, can be inhibited. […] An experimental system without the test samples was set as control. The residual activity of COX-1 or COX-2 was determined as relative activity versus control.

[3] = biological target: T2, COX-2 (Homo sapiens, UniProt P35354); assay: COX Inhibitor Screening Assay Kit, COX-2; format: biochemical
T2 sequence (P35354 18-604): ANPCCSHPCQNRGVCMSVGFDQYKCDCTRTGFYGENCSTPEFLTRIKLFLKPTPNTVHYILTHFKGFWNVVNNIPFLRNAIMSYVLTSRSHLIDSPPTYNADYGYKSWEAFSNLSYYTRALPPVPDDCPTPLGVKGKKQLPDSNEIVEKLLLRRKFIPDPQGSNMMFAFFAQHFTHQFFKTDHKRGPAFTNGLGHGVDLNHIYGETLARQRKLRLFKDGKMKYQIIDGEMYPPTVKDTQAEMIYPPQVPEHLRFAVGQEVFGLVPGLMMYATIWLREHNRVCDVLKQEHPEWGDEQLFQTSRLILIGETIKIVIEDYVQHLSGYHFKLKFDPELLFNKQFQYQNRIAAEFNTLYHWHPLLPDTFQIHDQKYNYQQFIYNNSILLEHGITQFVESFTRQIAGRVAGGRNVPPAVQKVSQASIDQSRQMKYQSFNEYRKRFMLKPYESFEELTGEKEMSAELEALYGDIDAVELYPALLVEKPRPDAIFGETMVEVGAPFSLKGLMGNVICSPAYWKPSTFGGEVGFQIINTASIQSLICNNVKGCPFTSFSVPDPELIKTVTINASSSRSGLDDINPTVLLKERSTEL
Excerpt: as §2, §3

[4] = test system: Mouse melanoma cell line B16; assay: Living cell rate of B16 cells; settings: 5 days, versus control
Procedure: as §1

[5] = test system: RAW264.7 cells; assay: NO production by macrophage RAW264.7, Griess method; format: cell-based, mouse; settings: LPS + IFN-γ, 2 days, relative level versus control
Excerpt: As macrophage cells, RAW264.7 cell strain from mouse or macrophage cells obtained from laboratory animals such as mouse can be used. The amount of produced NO can be measured by conventional Griess method. […] RAW264.7 cells, a murine macrophage cell strain, were suspended in PRMI1640 medium supplied with 10% (v/v) fetal calf serum (hereinafter abbreviated as “FCS”) to give a cell suspension with a cell concentration of 1×10^6 cells/ml. […] The experimental system without the test samples described above was set as control. […] NO production, PGE2 production and macrophage growth are indicated as relative levels versus controls.

[6] = test system: RAW264.7 cells; assay: PGE2 production by macrophage RAW264.7, PGE2-EIA kit; format: cell-based, mouse; settings: LPS + IFN-γ, 2 days, relative level versus control
Excerpt: (§4) RAW264.7 cells, a murine macrophage cell strain, were suspended in PRMI1640 medium supplied with 10% (v/v) fetal calf serum (hereinafter abbreviated as “FCS”) to give a cell suspension with a cell concentration of 1×10^6 cells/ml. […] The experimental system without the test samples described above was set as control. […] NO production, PGE2 production and macrophage growth are indicated as relative levels versus controls.

[7] = test system: RAW264.7 cells; assay: Macrophage growth, living cell count; format: cell-based, mouse; settings: 2 days, relative level versus control
Excerpt: as §4

[8] = biological target: T2, COX-2; settings: nonsteroidal COX inhibitors, comparison values, source not given; cited from earlier work
[9] = read-out: residual activity of COX-1
[10] = read-out: residual activity of COX-2

## Nc1ccccc1O [2-Aminophenol]
[1]; 1 μM
  Amount of melanin (%): 62%
[1]; 2 μM
  Amount of melanin (%): 55%
[1]; 4 μM
  Amount of melanin (%): 50%
[1]; in the concentration at which the cell-growth was not inhibited
  inhibiting effect on melanin production higher than that of kojic acid: 1.000 fold
[2]
  IC50: 28 µM
[2]; [9]
  remaining activity at 8 µM: 66%
  remaining activity at 16 µM: 73%
  remaining activity at 32 µM: 42%
[3]
  IC50: 27.7 µM
[3]; ratio of IC50 values of Table 2
  COX-1/COX-2 ratio: about 1
[3]; [10]
  remaining activity at 8 µM: 72%
  remaining activity at 16 µM: 60%
  remaining activity at 32 µM: 47%
[4]; 1 μM
  Living cell rate (%): 95%
[4]; 2 μM
  Living cell rate (%): 79%
[4]; 4 μM
  Living cell rate (%): 52%

## CC(=O)Oc1ccccc1C(=O)O [AS, aspirin]
[5]; 0.16 μM
  NO production (%): 101%
[5]; 0.31 μM
  NO production (%): 102%
[5]; 0.63 μM
  NO production (%): 102%
[5]; 1.3 μM
  NO production (%): 93%
[5]; 2.5 μM
  NO production (%): 95%
[5]; 5.0 μM
  NO production (%): 90%
[5]; 10 μM
  NO production (%): 86%
[6]; 0.16 μM
  PGE2 production (%): 98%
[6]; 0.31 μM
  PGE2 production (%): 99%
[6]; 0.63 μM
  PGE2 production (%): 79%
[6]; 1.3 μM
  PGE2 production (%): 47%
[6]; 2.5 μM
  PGE2 production (%): 33%
[6]; 5.0 μM
  PGE2 production (%): 8%
[6]; 10 μM
  PGE2 production (%): 3%
[7]; 0.16 μM
  Macrophage growth (%): 103%
[7]; 0.31 μM
  Macrophage growth (%): 100%
[7]; 0.63 μM
  Macrophage growth (%): 95%
[7]; 1.3 μM
  Macrophage growth (%): 85%
[7]; 2.5 μM
  Macrophage growth (%): 86%
[7]; 5.0 μM
  Macrophage growth (%): 89%
[7]; 10 μM
  Macrophage growth (%): 89%
[8]
  COX-1/COX-2 ratio: 0.24
